Reference: patent publication US6211215A, “Heterocyclic compounds, their production and use” (Takeda Chemical Industries, Ltd., priority 1996, dated 2001)

Experiments:
[1] = tested on: human prostate cancer cell line, LNCaP; test: In vivo inhibition of prostate cancer (2); design: species or system male Balb/C-strain athymic nude mice; details: for Tumor growth rate (%): 60 mg/kg/day, oral, 30 mg/kg twice daily for 21 days
Description: 5,000,000 cells of human prostate cancer cell line, LNCaP, were suspended in a gelmatrix solution and implanted subcutaneously at the breast in 8-week old male Balb/C-strain athymic nude mice (Friedman R. et al., Proceedings of the National Academy of Sciences of the U.S.A. Vol. 87, pp.6698-6702, 1990). 33 days after the implantation, the diameters of tumors were measured. Five mice per group with similar tumor size were used for the experiment. Compound 8 of the present invention was suspended in a 5% gum arabic solution (physiological saline) and administered orally twice daily in a dose of 30 mg/kg body weight for 21 days. For another experiment, the mice were castrated 33 days after implantation of the cancer cell for observing the effect of hormone depletion on the prostate cancer growth. Furthermore, Compound 8 of the present invention was administered orally twice daily in a dose of 30 mg/kg body weight for 21 days to the castrated mice. After the completion of the dosing, the diameters of tumor were measured. The tumor volume was calculated by the following formula: volume of tumor=longest diameter×shortest diameter×shortest diameter×1/2. The growth rate of tumors was obtained as the proportion to the volume of tumor in the control animals in which only the gum arabic solution was administered. The body weights of mice administered with Compound 8 of the present invention were measured during the experiment to observe no decrease.

[2] = tested on: human breast cancer cell line, MDA-MB-453; test: In vivo mammary cancer inhibiting effect (1); design: species or system female Balb/C strain athymic nude mice; details: for Tumor growth rate (%): oral, tumor volume vs control
Description: 5,000,000 cells of human breast cancer cell line, MDA-MB-453, were suspended in a gelmatrix solution. The suspension was subcutaneously implanted at the breast in 7-week-old female Balb/C strain athymic nude mice (Friedman R. et al., Proceedings of the National Academy of Sciences of the U.S.A. Vol. 87, pp.6698-6702, 1990). Twelve days after the implantation, the diameters of tumors were determined. For the experiment were used 5 mice per group with similar tumor size. Compound 8 of the present invention was suspended in a 5% gum arabic solution (physiologicalsaline) and administered orally twice daily in dose of 30 mg/kg body weight for 10 days, or 2 cycle oral administrations consisting of 45 mg/kg body weight twice daily for 3 days and no treatment for 3 days were performed. On the day when the dosing was ended, the diameters of tumors were measured. Tumor volume was calculated by the following formula: volume of tumor=longest diameter×shortest diameter×shortest diameter×1/2. The growth rate of tumors was obtained as the proportion to the volume of tumor in the control animals in which only the gum arabic solution was administered. The body weights of mice administered with Compound 8 of the present invention were measured during the experiment to observe no decrease.

HER2 [3] = molecular target: T1, HER2 (Homo sapiens, UniProt P04626); test: Inhibition of phosphorylation of receptor tyrosine in human breast cancer cells (2), MCF-7, heregulin-stimulated; format: cell-based; design: Human breast cancer cell line MCF-7 was used; endogenous in cells; host or cells: MCF-7; details: heregulin control = 100%, read-out: Phosphorylation of receptor tyrosine residue (%)
Description: Human breast cancer cell line MCF-7 was used. 1,000 μl of the cell suspension (250,000 cells) was seeded in each well of the 24-well plates. The culture were incubated at 37° C. in a 5% carbon dioxide gas incubator. On the next day, 100 μl of the 10-fold serial dilution of each compound solution was added to each well and, 2 hours later, 0.5 μg/ml of heregulin was added to it. After 5 minutes the extract solution was added to it to terminate the reaction, and the protein fraction was extracted. The protein was fractionated by the protein electrophoresis. The protein in the electrophoretic gel was transferred to a nylon filter. The filter was allowed to react with the phosphorylated tyrosine-specific antibody. The reaction product was fluorescence-labeled to expose a photofilm. The intensity of the exposure on the photofilm was quantitated by an image-analyzing apparatus. The proportion of the phosphorylation of HER2 tyrosine in the cells added with a compound solution of each concentration was calculated designating the phosphorylation of HER2 tyrosine in the heregulin-added cells as 100%.
Target sequence in this assay (P04626 23-1255): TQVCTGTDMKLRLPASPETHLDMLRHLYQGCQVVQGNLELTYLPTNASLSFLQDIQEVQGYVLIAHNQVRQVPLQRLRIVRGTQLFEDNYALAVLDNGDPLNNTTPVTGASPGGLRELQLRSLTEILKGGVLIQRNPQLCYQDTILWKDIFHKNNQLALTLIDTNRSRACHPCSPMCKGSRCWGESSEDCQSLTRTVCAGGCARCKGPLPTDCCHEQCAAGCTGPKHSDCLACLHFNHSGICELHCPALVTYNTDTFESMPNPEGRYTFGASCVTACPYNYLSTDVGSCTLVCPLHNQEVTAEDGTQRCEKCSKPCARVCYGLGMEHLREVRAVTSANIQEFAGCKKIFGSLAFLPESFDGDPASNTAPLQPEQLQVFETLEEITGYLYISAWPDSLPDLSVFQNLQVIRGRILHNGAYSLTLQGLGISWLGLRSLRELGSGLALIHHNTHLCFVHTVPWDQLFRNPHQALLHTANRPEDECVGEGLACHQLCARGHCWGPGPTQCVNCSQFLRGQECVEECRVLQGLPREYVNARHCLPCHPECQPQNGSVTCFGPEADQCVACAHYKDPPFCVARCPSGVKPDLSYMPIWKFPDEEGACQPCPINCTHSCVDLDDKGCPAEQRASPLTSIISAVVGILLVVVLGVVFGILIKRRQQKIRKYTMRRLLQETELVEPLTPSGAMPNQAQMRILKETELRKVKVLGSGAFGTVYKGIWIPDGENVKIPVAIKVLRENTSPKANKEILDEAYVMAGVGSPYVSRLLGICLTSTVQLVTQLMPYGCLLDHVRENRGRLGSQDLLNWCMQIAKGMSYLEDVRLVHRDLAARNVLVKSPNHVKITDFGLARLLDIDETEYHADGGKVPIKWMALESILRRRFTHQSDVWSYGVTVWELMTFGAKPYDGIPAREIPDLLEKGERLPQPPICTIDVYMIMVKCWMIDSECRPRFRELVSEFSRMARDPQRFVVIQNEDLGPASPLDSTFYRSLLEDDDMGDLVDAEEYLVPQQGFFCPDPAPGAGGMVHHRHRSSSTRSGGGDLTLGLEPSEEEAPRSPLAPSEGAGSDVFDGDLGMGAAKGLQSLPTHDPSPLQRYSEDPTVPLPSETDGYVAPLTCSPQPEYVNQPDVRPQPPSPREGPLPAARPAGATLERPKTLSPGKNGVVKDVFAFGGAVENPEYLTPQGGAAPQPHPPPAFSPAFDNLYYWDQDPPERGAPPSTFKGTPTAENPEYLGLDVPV

HER2 [4] = molecular target: T1, HER2; test: Inhibition of the activity of human growth factor receptor (HER2) tyrosine kinase; format: biochemical; design: the tyrosine kinase domain of the human HER2 gene was cloned; made in house; host or cells: insect cell line SF-21 (recombinant insect virus vector); details: HER2 receptor type tyrosine kinase; ELISA with HER3 substrate; read-out: Concentration of inhibiting HER2 (IC50)
Text: As enzyme standard, the tyrosine kinase domain of the human HER2 gene was cloned to prepare the recombinant gene of insect virus vector, with which the insect cell line SF-21 was infected to produce an enzyme protein (Guy P. M. et al., Journal of Biological Chemistry Vol. 267, pp.13851-13856, 1992). As substrate, the phosphorylated tyrosine domain of the HER3 protein was cloned to prepare the recombinant gene of plasmid vector with which Escherichia Coli strain JM109 was infected to give an enzyme protein (Sierke S. L. et al., Biochemistry Vol. 32, pp.10102-10108, 1993). The enzymatic reaction was performed by the enzyme-linked immunological method which consisted of fixing the substrate protein in wells of a 96-well microtiter plate, adding the enzyme into the wells and quantitating phosphorylated tyrosine, which was the reaction product, by use of the anti-phosphorylated tyrosine antibody (Cleaveland J. S. et al., Analytical Biochemistry Vol. 190, pp249-253, 1990).
Target sequence in this assay (P04626 720-987 limits assumed): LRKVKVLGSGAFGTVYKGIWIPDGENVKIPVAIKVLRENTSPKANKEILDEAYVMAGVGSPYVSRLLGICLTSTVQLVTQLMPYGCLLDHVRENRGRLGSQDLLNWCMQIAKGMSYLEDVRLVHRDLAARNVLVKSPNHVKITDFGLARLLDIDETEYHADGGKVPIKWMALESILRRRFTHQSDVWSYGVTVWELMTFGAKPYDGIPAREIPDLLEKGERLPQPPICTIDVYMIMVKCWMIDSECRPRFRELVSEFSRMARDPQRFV

C(=C\c1nc(COc2ccc(CCCn3ccnc3)cc2)co1)/c1ccccc1 [Compound 8, 4-[4-[3-(1-imidazolyl)propyl]phenoxymethyl]-2-[(E)-2-phenylethenyl]oxazole]
Tumor growth rate (%) ([1]; castrated group (castrated without compound: 69)): 55% | Tumor growth rate (%) ([1]; non-castrated, tumor volume vs control): 80% | Inhibition of implanted tumor growth ([1]; LNCaP, athymic nude mice): inhibiting tumor growth of hormone dependent prostate cancer LNCaP | Effect of castration on tumor growth inhibiting effect ([1]; LNCaP, castrated athymic nude mice): further enhanced when the hormone levels were reduced by castration | Tumor growth rate (%) ([2]; 60 mg/kg/day, 30 mg/kg twice daily for 10 days): 71% | Tumor growth rate (%) ([2]; 90 mg/kg/day, 2 cycles of 45 mg/kg twice daily 3 days and 3 days off): 46% | Inhibition of implanted tumor growth ([2]; MDA-MB-453, athymic nude mice): inhibited dose-dependently the growth of human breast cancer | activity at 0.4 µM (HER2 [3]; MCF7, 0.4 μM): 67% | activity at 1.6 µM (HER2 [3]; MCF7, 1.6 μM): 41% | activity at 6.3 µM (HER2 [3]; MCF7, 6.3 μM): 32% | activity at 25 µM (HER2 [3]; MCF7, 25 μM): 30% | IC50 (HER2 [4]): 20 µM
